Measurements from US20150368209A1, “4-Pyrimidinylamino-benzenesulfonamide derivatives and their use for the inhibition of polo-like kinase 1 (PLK1) for the treatment of cancer and their use for the treatment of bacterial infections” (VICHEM CHEMIE KUTATÓ KFT., priority 2013, published 2015).
Converted amounts (≈) assume the structure as drawn.

Assays:
human PLK1 kinase domain = target: T1, human PLK1 kinase domain (Homo sapiens, UniProt P53350); test: In vitro PLK1 assay (IMAP fluorescence polarization kinase assay); assay type: biochemical; conditions: for inhibition at 10 µM: at 10 uM compound; for IC50: 30 nM PLK1 kinase domain, 16 μM ATP (=Kmapp), 90 min at room temperature
T1 construct: Each reaction consisted of 30 nM enzyme PLK1 kinase domain
T1 sequence (P53350 53-305 limits assumed): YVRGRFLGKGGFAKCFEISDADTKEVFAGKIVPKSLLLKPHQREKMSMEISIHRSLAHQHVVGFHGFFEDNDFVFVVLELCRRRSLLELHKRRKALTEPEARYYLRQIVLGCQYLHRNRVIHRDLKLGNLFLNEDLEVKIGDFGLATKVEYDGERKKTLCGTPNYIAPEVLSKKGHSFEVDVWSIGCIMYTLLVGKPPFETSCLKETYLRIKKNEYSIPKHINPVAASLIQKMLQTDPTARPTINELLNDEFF
Protocol: The activity of the compounds described in the present invention was determined using a commercially available IMAP Screening Express Assay Kit (Molecular devices).
This method measures the change in the fluorescent polarization of a fluorescently-labeled peptide due to the effect of human PLK1 kinase domain on it. PLK1 kinase assays were performed in low protein binding 384-well plates (Corning 3676). Test compounds were diluted in 100% DMSO to 5 mM stock concentration, the further dilutions were made in H2O or 100% DMSO to desirable concentrations.
Each reaction consisted of 30 nM enzyme PLK1 kinase domain, 400 nM 5TAMRA-RGSFNDTLDFD-NH2 (Genecust Europe), 16 μM ATP (=Kmapp, Sigma-Aldrich) and kinase buffer: 20 mM HEPES pH 7.5 (Sigma-Aldrich), 1 mM DTT (Sigma-Aldrich), 10 mM MgCl2 (Sigma-Aldrich), 0.01% Triton X-100 (Sigma-Aldrich).
For each reaction, 4 or 6 μl containing 5TAMRA-RGSFNDTLDFD-NH2, ATP and kinase buffer were combined with 2 μl diluted compound in H2O or 0.04 μl compound in 100% DMSO. The kinase reaction was started by the addition of 2 μl diluted enzyme. The reaction was allowed to run for 90 minutes at room temperature. The reaction was stopped by adding 15 μl IMAP beads (1:1200 beads in progressive (40% buffer A, 60% buffer B) 1× buffer). After an additional 60 minutes, fluorescent polarization (Ex: 550-10 nm, Em: 590-10 nm, Dich: 561 nm) was measured using Analyst GT multimode reader (Molecular Devices).

M. tuberculosis H37Rv = test: Resazurin reduction microtiter assay (REMA), growth inhibition and MIC determination; assay type: cell-based; conditions: Mycobacterium tuberculosis, 168 h, 7 days at 37° C.; for inhibition at 20 µM: at 20 uM compound, read-out: H37Rv inh % at 20 uM; for MIC: two-fold serial dilution from 100 to 0.16 μM, read-out: H37Rv MIC90

Compound: COc1ccc(C(C)(C)C)cc1-c1cc(Nc2ccc(S(=O)(=O)Nc3onc(C)c3C)cc2)ncn1 [Example 6, 4-[6-(5-tert-Butyl-2-methoxy-phenyl)-pyrimidin-4-ylamino]-N-(3,4-dimethyl-isoxazol-5-yl)-benzenesulfonamide]
- inhibition at 10 µM (human PLK1 kinase domain): 26.1%
- HepG2 TD50 (HepG2): 19.6
- inhibition at 20 µM (M. tuberculosis H37Rv): 94.1%
- MIC (M. tuberculosis H37Rv): 19.6 µM (≈ 9.95 µg/mL)

Compound: COc1ccc(C)cc1-c1cc(Nc2ccc(S(=O)(=O)Nc3onc(C)c3C)cc2)ncn1 [Example 9, N-(3,4-Dimethyl-isoxazol-5-yl)-4-[6-(2-methoxy-5-methyl-phenyl)-pyrimidin-4-ylamino]-benzenesulfonamide]
- IC50 (human PLK1 kinase domain): 0.807 µM
- inhibition at 10 µM (human PLK1 kinase domain): 67.6%
- HepG2 TD50 (HepG2): 19.6
- inhibition at 20 µM (M. tuberculosis H37Rv): 101%
- MIC (M. tuberculosis H37Rv): 19.3 µM (≈ 8.98 µg/mL)

Compound: COc1cccc(F)c1-c1cc(Nc2ccc(S(=O)(=O)Nc3onc(C)c3C)cc2)ncn1 [Example 12, N-(3,4-Dimethyl-isoxazol-5-yl)-4-[6-(2-fluoro-6-methoxy-phenyl)-pyrimidin-4-ylamino]-benzenesulfonamide]
- IC50 (human PLK1 kinase domain): 1.46 µM
- inhibition at 10 µM (human PLK1 kinase domain): 83.3%
- HepG2 TD50 (HepG2): 19.6
- inhibition at 20 µM (M. tuberculosis H37Rv): 102%
- MIC (M. tuberculosis H37Rv): 1.13 µM (≈ 0.531 µg/mL)

Compound: COc1cccc(Cl)c1-c1cc(Nc2ccc(S(=O)(=O)Nc3onc(C)c3C)cc2)ncn1 [Example 15, 4-[6-(2-Chloro-6-methoxy-phenyl)-pyrimidin-4-ylamino]-N-(3,4-dimethyl-isoxazol-5-yl)-benzenesulfonamide]
- inhibition at 10 µM (human PLK1 kinase domain): 96.4%
- HepG2 TD50 (HepG2): 0.0458
- inhibition at 20 µM (M. tuberculosis H37Rv): 102%
- MIC (M. tuberculosis H37Rv): 0.292 µM (≈ 0.142 µg/mL)

Compound: Cc1noc(NS(=O)(=O)c2ccc(Nc3cc(-c4cc(Cl)ccc4Cl)ncn3)cc2)c1C [Example 16, 4-[6-(2,5-Dichloro-phenyl)-pyrimidin-4-ylamino]-N-(3,4-dimethyl-isoxazol-5-yl)-benzenesulfonamide]
- IC50 (human PLK1 kinase domain): 0.604 µM
- inhibition at 10 µM (human PLK1 kinase domain): 7.9%
- HepG2 TD50 (HepG2): 2.37
- inhibition at 20 µM (M. tuberculosis H37Rv): 100%
- MIC (M. tuberculosis H37Rv): 11.8 µM (≈ 5.76 µg/mL)

Compound: COc1cccc(OC)c1-c1cc(Nc2ccc(S(=O)(=O)Nc3onc(C)c3C)cc2)ncn1 [Example 22, 4-[6-(2,6-Dimethoxy-phenyl)-pyrimidin-4-ylamino]-N-(3,4-dimethyl-isoxazol-5-yl)-benzenesulfonamide]
- inhibition at 10 µM (human PLK1 kinase domain): 10.1%
- HepG2 TD50 (HepG2): 9.819
- inhibition at 20 µM (M. tuberculosis H37Rv): 102%
- MIC (M. tuberculosis H37Rv): 7.24 µM (≈ 3.49 µg/mL)

Compound: COc1cccc(-c2cc(Nc3ccc(S(=O)(=O)Nc4onc(C)c4C)cc3)ncn2)c1OC [Example 36, 4-[6-(2,3-Dimethoxy-phenyl)-pyrimidin-4-ylamino]-N-(3,4-dimethyl-isoxazol-5-yl)-benzenesulfonamide]
- IC50 (human PLK1 kinase domain): 2.18 µM
- inhibition at 10 µM (human PLK1 kinase domain): 77.3%
- inhibition at 20 µM (M. tuberculosis H37Rv): -9.8%

Compound: COc1ccc(-c2cc(Nc3ccc(S(=O)(=O)Nc4onc(C)c4C)cc3)ncn2)c(OC)c1 [Example 37, 4-[6-(2,4-Dimethoxy-phenyl)-pyrimidin-4-ylamino]-N-(3,4-dimethyl-isoxazol-5-yl)-benzenesulfonamide]
- IC50 (human PLK1 kinase domain): 0.947 µM
- inhibition at 10 µM (human PLK1 kinase domain): 70%
- HepG2 TD50 (HepG2): 16.1
- inhibition at 20 µM (M. tuberculosis H37Rv): 101%
- MIC (M. tuberculosis H37Rv): 13.7 µM (≈ 6.57 µg/mL)

Compound: COc1ccc(F)cc1-c1cc(Nc2ccc(S(=O)(=O)Nc3onc(C)c3C)cc2)ncn1 [Example 38, N-(3,4-Dimethyl-isoxazol-5-yl)-4-[6-(5-fluoro-2-methoxy-phenyl)-pyrimidin-4-ylamino]-benzenesulfonamide]
- IC50 (human PLK1 kinase domain): 3.19 µM
- inhibition at 10 µM (human PLK1 kinase domain): 80.8%
- inhibition at 20 µM (M. tuberculosis H37Rv): 96.4%
- MIC (M. tuberculosis H37Rv): 19.6 µM (≈ 9.2 µg/mL)

Compound: Cc1noc(NS(=O)(=O)c2ccc(Nc3cc(-c4ccccc4)ncn3)cc2)c1C [Example 39, N-(3,4-Dimethyl-isoxazol-5-yl)-4-(6-phenyl-pyrimidin-4-ylamino)-benzenesulfonamide]
- inhibition at 10 µM (human PLK1 kinase domain): 57.9%
- inhibition at 20 µM (M. tuberculosis H37Rv): -22.2%

Compound: Cc1noc(NS(=O)(=O)c2ccc(Nc3cc(-c4ccccc4F)ncn3)cc2)c1C [Example 40, N-(3,4-Dimethyl-isoxazol-5-yl)-4-[6-(2-fluoro-phenyl)-pyrimidin-4-ylamino]-benzenesulfonamide]
- IC50 (human PLK1 kinase domain): 2.43 µM
- inhibition at 10 µM (human PLK1 kinase domain): 88.6%
- inhibition at 20 µM (M. tuberculosis H37Rv): -8.5%

Compound: COc1ccccc1-c1cc(Nc2ccc(S(=O)(=O)NC(=O)C(C)C(C)=O)cc2)ncn1 (stereo not drawn) [Example 41, 4-[6-(2-Methoxy-phenyl)-pyrimidin-4-ylamino]-N-(2-methyl-3-oxo-butyryl)-benzenesulfonamide]
- inhibition at 10 µM (human PLK1 kinase domain): 59%
- inhibition at 20 µM (M. tuberculosis H37Rv): -4.8%

Compound: Cc1noc(NS(=O)(=O)c2ccc(Nc3cc(-c4cccc(C(F)(F)F)c4)ncn3)cc2)c1C [Example 42, N-(3,4-Dimethyl-isoxazol-5-yl)-4-[6-(3-trifluoromethyl-phenyl)-pyrimidin-4-ylamino]-benzenesulfonamide]
- inhibition at 10 µM (human PLK1 kinase domain): 17%
- inhibition at 20 µM (M. tuberculosis H37Rv): 24.2%

Compound: Cc1noc(NS(=O)(=O)c2ccc(Nc3cc(-c4cccc5ccccc45)ncn3)cc2)c1C [Example 43, N-(3,4-Dimethyl-isoxazol-5-yl)-4-(6-naphthalen-1-yl-pyrimidin-4-ylamino)-benzenesulfonamide]
- IC50 (human PLK1 kinase domain): 13.8 µM
- inhibition at 10 µM (human PLK1 kinase domain): 58.8%
- inhibition at 20 µM (M. tuberculosis H37Rv): -9.2%
